“And” between values parts separate entries of the source, which are not always exact repeats. Equal entries are not always repeated. Where two headings read alike, the source gives them in different places.
What was measured:
[1] = test system: lymphocyte proliferation (LAF); cells from the thymus of normal BALB/c mice; test: comitogen-induced thymocyte proliferation procedure (LAF); format: cell-based; conditions: read-out: LAF IC50
Procedure: The immunosuppressive activities for representative compounds of this invention were evaluated in an in vitro standard pharmacological test procedure to measure lymphocyte proliferation (LAF) and in an in vivo standard pharmacological test procedure which evaluated the survival time of pinch skin grafts. […] Cells are harvested and incorporated radioactivity is determined. Inhibition of lymphoproliferation is assessed as percent change in counts per minute from non-drug treated controls. The results are expressed as an IC50.

[2] = stability in 0.1M phosphate buffer via HPLC; format: physicochemical
Procedure: In addition, the stability of representative compounds was tested, via HPLC, in 0.1M phosphate buffer (pH 7.4, 37° C.).

[3] = test system: pinch skin graft from male DBA/2 donors transplanted to male BALB/c recipients; test: survival time of pinch skin graft; format: in vivo, mice; conditions: for Skin Graft (days), mean graft survival time: intraperitoneally, ± S.D.
Procedure: Representative compounds of this invention were also evaluated in an in vivo test procedure designed to determine the survival time of pinch skin graft from male DBA/2 donors transplanted to male BALB/c recipients. The method is adapted from Billingham R. E. and Medawar P. B., J. Exp. Biol. 28:385-402, (1951). Briefly, a pinch skin graft from the donor is grafted on the dorsum of the recipient as a homograft, and an autograft is used as control in the same region. The recipients are treated with either varying concentrations of cyclosporin A as test control or the test compounds, intraperitoneally. Untreated recipients serve as rejection control. The graft is monitored daily and observations are recorded until the graft becomes dry and forms a blackened scab. This is considered as the rejection day. The mean graft survival time (number of days±S.D.) of the drug treatment group is compared with the control group.

[4] = test system: smooth muscle cell proliferation and intimal thickening following vascular injury; conditions: cited from earlier work
[5] = test system: insulin dependent diabetes mellitus; conditions: cited from earlier work
[6] = alone or in combination with picibanil; cited from earlier work
[7] = test system: experimental allergic encephalomyelitis model, a model for multiple sclerosis; conditions: cited from earlier work
[8] = test system: adjuvant arthritis model, a model for rheumatoid arthritis; conditions: cited from earlier work
[9] = test system: formation of IgE-like antibodies; conditions: cited from earlier work
Candida albicans = conditions: particularly against Candida albicans, both in vitro and in vivo; cited from earlier work
[10] = test system: systemic lupus erythematosus; conditions: cited from earlier work
[11] = BALB/c mouse thymocytes, PHA and IL-1, 72 hours
[12] = 0.1m phosphate buffer, pH 7.4 buffer, 0.1M phosphate, 37° C., read-out: Stability (converted)

`CCC12CCCCN1C(=O)C(=O)[C@]1(O)O[C@@H](CC[C@H]1C)C[C@H](OC)/C(C)=C/C=C/C=C/[C@@H](C)C[C@@H](C)C(=O)[C@H](OC)[C@H](O)/C(C)=C/[C@@H](C)C(=O)C[C@@H]([C@H](C)C[C@@H]1CC[C@@H](O)[C@H](OC)C1)OC2=O` (stereo partly shown) [22-ethyl-rapamycin, C-22-ethyl-rapamycin] gave an IC50 [1, 11] of 140 nM.
Molecule `CO[C@H]1C[C@@H]2CC[C@@H](C)[C@@](O)(O2)C(=O)C(=O)N2CCCCC2(C)C(=O)O[C@H]([C@H](C)C[C@@H]2CC[C@@H](O)[C@H](OC)C2)CC(O)[C@H](C)/C=C(\C)[C@@H](O)[C@@H](OC)C(=O)[C@H](C)C[C@H](C)/C=C/C=C/C=C/1C` (stereo partly shown) [22-methyl-27-hydroxyrapamycin, C-22-methyl-C-27-hydroxy-rapamycin] has a half-life ([2]; 0.1m phosphate buffer, pH 7.4) of 21.8 h and an IC50 [1, 11] of 9.9 nM.
For `CO[C@H]1C[C@@H]2CC[C@@H](C)[C@@](O)(O2)C(=O)C(=O)N2CCCCC2(C)C(=O)O[C@H]([C@H](C)C[C@@H]2CC[C@@H](O)[C@H](OC)C2)CC(=O)[C@H](C)/C=C(\C)[C@@H](O)[C@@H](OC)C(=O)[C@H](C)C[C@H](C)/C=C/C=C/C=C/1C` (stereo partly shown) [22-methyl-rapamycin, C-22-methyl-rapamycin], the “Skin Graft (days), mean graft survival time” value (shortened to “Skin Graft (days)”) ([3]; 4 mg/kg) was 9.33 ± 0.52 days and 9.00 ± 0.63 days, the “Skin Graft (days)” value ([3]; *tested at 16 mg/kg) was 10.17 ± 0.55 days and the “graft survival time (in words)” value ([3]; relative to grafts without immunosuppressive agent (rejected within 6-7 days)) was “increased survival time”. For the same molecule, the half-life ([2]; 0.1M phosphate buffer, pH 7.4, 37° C., read-out: half life in stability test (converted)) was 38 h and the IC50 [1, 11] was 23.5 nM.
For `COC1CC2CCC(C)C(O)(O2)C(=O)C(=O)N2CCCCC2(C)C(=O)OC(C(C)CC2CCC(OC(=O)CN(C)C)C(OC)C2)CC(=O)C(C)C=C(C)C(O)C(OC)C(=O)C(C)CC(C)C=CC=CC=C1C` (stereo not shown) [C-22-methyl-42-dimethylglycine-rapamycin, C-22-methyl-42-dimethylglycine rapamycin], the half-life [2, 12] was 13.5 h and the IC50 [1, 11] was 19.9 nM.
In the case of `CO[C@H]1C[C@@H]2CC[C@@H](C)[C@@](O)(O2)C(=O)C(=O)N2CCCC[C@H]2C(=O)O[C@H]([C@H](C)C[C@@H]2CC[C@@H](O)[C@H](OC)C2)CC(=O)[C@H](C)/C=C(\C)[C@@H](O)[C@@H](OC)C(=O)[C@H](C)C[C@H](C)/C=C/C=C/C=C/1C` [rapamycin], the “effect on smooth muscle cell proliferation and intimal thickening” value [4] is listed as “useful in preventing or treating”, the “Skin Graft (days)” value ([3]; 4 mg/kg) is listed as 12.01 ± 0.26 days and the “effect in insulin dependent diabetes mellitus” value [5] is listed as “useful in preventing or treating”. The antitumor activity [6] was “antitumor activity”, the “effect in experimental allergic encephalomyelitis model” value [7] was “effective” and the “effect in adjuvant arthritis model” value [8] was “effective”. The “half life in stability test” value ([2]; 0.1M phosphate buffer, pH 7.4, 37° C.) was 12 to 13 h, the half-life [2, 12] was 12 to 13 h and the IC50 ([1]; Mus musculus, 72 h) was 0.4 to 9.4 nM. For the same molecule, the “inhibition of formation of IgE-like antibodies” value [9] was “effectively inhibited”, the antifungal activity (Candida albicans) was “antifungal activity, particularly against Candida albicans, both in vitro and in vivo” and the “effect in systemic lupus erythematosus” value [10] was “useful in preventing or treating”.

Source: patent US5387680A, “C-22 ring stabilized rapamycin derivatives” (American Home Products Corporation, priority 1993, dated 1995)
